Seven compounds from DBAASP can be followed below.

Values after ≈ are worked out from the molar mass of the structure shown.

In general, MIC refers to the lowest concentration that inhibits growth of the organism. Low values mean a more susceptible organism, high ones a less susceptible organism.

Test systems include Botrytis cinerea; Escherichia coli; Klebsiella pneumoniae; Enterococcus faecium; Staphylococcus aureus.
Common to all, as to assay: ≥ marks a high value that may be exact or a test limit, other limits are often not marked, values filed in µg/mL are converted to µM
For assay [1], the system named is Staphylococcus aureus USA 100.
The subject of assay [2] is Candida albicans ATCC 10231.
Assay [3] deals with Escherichia coli ATCC 11775.
In assay [4] the test system is Staphylococcus aureus ATCC 12600.
Assay [5] deals with Escherichia coli ATCC 25922.
The subject of assay [6] is Escherichia coli ATCC 8739.
Assay [7] concerns Staphylococcus aureus ATCC 25923.
Assay [8] concerns Bacillus subtilis KCTC 3068.
Assay [9] has as its system Escherichia coli KCTC 1682.
Assay [10] has as its system Pseudomonas aeruginosa KCTC 1637.
The subject of assay [11] is Salmonella typhimurium KCTC 1926.
Assay [12] has as its system Staphylococcus aureus CCARM 3089.
In assay [13] the test system is Staphylococcus aureus KCTC 1621.
Assay [14] concerns Staphylococcus epidermidis KCTC 1917.

The compound `CC[C@H](C)[C@H](N)C(=O)N[C@@H](CCCN=C(N)N)C(=O)N[C@H](C(=O)N[C@@H](CCCN=C(N)N)C(N)=O)[C@@H](C)CC` [IRIR] returned an MIC in [1] of at least 100 µM.
`CC(C)C[C@H](NC(=O)[C@H](C)NC(=O)[C@H](CO)NC(=O)[C@H](C)NC(=O)[C@@H](NC(=O)[C@H](CCCCN)NC(=O)[C@H](CCCCN)NC(=O)[C@@H](NC(=O)[C@H](CC(C)C)NC(=O)CNC(=O)[C@H](CC(C)C)NC(=O)[C@H](CC(C)C)NC(=O)[C@H](CC(=O)O)NC(=O)[C@@H](N)Cc1ccccc1)C(C)C)C(C)C)C(N)=O` [FDLLGLVKKVASAL]: the MIC in the assay with Botrytis cinerea was 5 µM (≈ 7.36 µg/mL); in assay [2], 100 µM (≈ 147 µg/mL); in [3], at least 100 µM; in assay [4], at least 50 µM.
Take `CC[C@H](C)[C@H](NC(=O)[C@H](CCCN=C(N)N)NC(=O)[C@H](C)NC(=O)[C@H](C)NC(=O)[C@H](CC(C)C)NC(=O)[C@H](CCCCN)NC(=O)[C@H](CCCCN)NC(=O)[C@H](CCCCN)NC(=O)[C@H](CCSC)NC(=O)[C@@H]1CCCN1)C(=O)N[C@@H](CC(C)C)C(=O)N[C@@H](C)C(=O)N[C@@H](CCCCN)C(=O)N[C@H](C(=O)N[C@H](C(=O)N[C@@H](C)C(=O)N1CCC[C@H]1C(=O)N[C@H](C(=O)N[C@@H](Cc1c[nH]c2ccccc12)C(=O)O)C(C)C)C(C)C)[C@@H](C)CC` [PMKKKLAARILAKIVAPVW]: the minimal inhibitory concentration (MIC) was 11.7 µM (≈ 25 µg/mL) in [5]; 7.5 µM (≈ 16 µg/mL) in assay [6]; 30 µM (≈ 64 µg/mL) in the assay with Escherichia coli; 60.9 µM (≈ 130 µg/mL) with Klebsiella pneumoniae; over 120 µM in [7].
For `CC[C@H](C)[C@H](N)C(=O)N[C@@H](CC(C)C)C(=O)N1CCC[C@H]1C(=O)N[C@H](C(=O)N[C@@H](CC(C)C)C(=O)N[C@@H](C)C(=O)N1CCC[C@H]1C(=O)N[C@@H](CC(C)C)C(=O)N[C@H](C(=O)NCC(=O)NCC(=O)N[C@@H](CC(C)C)C(=O)N[C@@H](CC(C)C)C(N)=O)[C@@H](C)CC)[C@@H](C)CC` [ILPILAPLIGGLL], the MIC in assay [3] and in assay [4] was at least 100 µM each time.
With `CC[C@H](C)[C@H](NC(=O)[C@H](C)NC(=O)[C@H](CO)NC(=O)[C@@H](NC(=O)[C@@H](NC(=O)[C@@H](NC(=O)[C@H](Cc1cnc[nH]1)NC(=O)[C@H](CC(C)C)NC(=O)[C@H](CC(=O)O)NC(=O)[C@@H](N)CCCCN)[C@@H](C)O)C(C)C)C(C)C)C(=O)N[C@@H](CC(C)C)C(=O)N[C@@H](CCC(N)=O)C(=O)N[C@@H](C)C(=O)N[C@@H](CC(C)C)C(N)=O` [KDLHTVVSAILQAL], the MIC with Botrytis cinerea is 5.31 µM (≈ 7.99 µg/mL); in assay [2], 33.2 µM (≈ 50 µg/mL); in assay [3], at least 66.3 µM; in assay [4], at least 66.3 µM.
As for `CC[C@H](C)[C@H](NC(=O)[C@H](CCCN=C(N)N)NC(=O)[C@H](CCCCN)NC(=O)[C@@H](NC(=O)[C@@H](NC(=O)[C@H](CCCN=C(N)N)NC(=O)[C@@H](N)CCCCN)[C@@H](C)CC)C(C)C)C(=O)N[C@@H](CCCCN)C(=O)N[C@@H](CCCCN)C(=O)N[C@@H](Cc1c[nH]c2ccccc12)C(=O)N[C@@H](CC(C)C)C(=O)N[C@@H](CCCN=C(N)N)C(N)=O` [KRIVKRIKKWLR], the MIC in assay [8] was 2 µM (≈ 3.25 µg/mL); in assay [9], 2 µM (≈ 3.25 µg/mL); in assay [10], 8 µM (≈ 13 µg/mL); in assay [11], 2 µM (≈ 3.25 µg/mL); in assay [12], 4 µM (≈ 6.49 µg/mL); in [13] it was 2 µM (≈ 3.25 µg/mL). Moreover, in [14], the MIC is 1 µM (≈ 1.62 µg/mL).
As for `NC(N)=NCCC[C@H](NC(=O)[C@H](CCCN=C(N)N)NC(=O)[C@H](Cc1ccccc1)NC(=O)[C@@H]1CCCN1C(=O)[C@H](Cc1c[nH]c2ccccc12)NC(=O)[C@H](Cc1c[nH]c2ccccc12)NC(=O)[C@H](Cc1c[nH]c2ccccc12)NC(=O)[C@@H]1CCCN1C(=O)[C@H](Cc1ccccc1)NC(=O)[C@H](CCCN=C(N)N)NC(=O)[C@@H](N)CCCN=C(N)N)C(=O)O` [RRFPWWWPFRR], the MIC in assay [8] worked out at 2.37 µM (≈ 4 µg/mL); in the assay with Enterococcus faecium, 2.37 µM (≈ 4 µg/mL); in assay [9], 9.47 µM (≈ 16 µg/mL); in [10] it was 9.47 µM (≈ 16 µg/mL); in assay [11], 4.73 µM (≈ 8 µg/mL); in assay [13] it was 2.37 µM (≈ 4 µg/mL). The MIC was determined as 3.35 µM (≈ 5.66 µg/mL) against Staphylococcus aureus and 1.18 µM (≈ 2 µg/mL) in assay [14].
